# Tested on: mushroom spines of hippocampal neurons
# Assay: Dendritic spine analysis in primary hippocampal neural cultures
# Format: cell-based, mouse
# Settings: for mushroom spine loss: 30 nM for 16 hours
# Protocol: FIGS. 4A-E. NSN21778 and Hyperforin rescue synaptic nSOC and mushroom spine loss in AD hippocampal neurons. (FIG. 4A) Chemical structure of NSN21778 and Hyperforin. (FIG. 4B) Time-course of GCaMP5.3 fluorescence signal changes in the spines of wild-type, PS1KI and APPKI hippocampal neurons. The time of extracellular Ca^2+ re-addition is indicated by a black bar above the traces. 100 μM DHPG was added 50 sec prior to Ca^2+ re-addition. The results are shown for control (CON) neurons and for neurons pretreated with 300 nM NSN21778 (+NSN) or 300 nM Hyperforin (+Hyp) for 30 min as indicated. For each experimental group individual spine (grey) and average (red) fluorescence traces are shown. (FIG. 4C) The average nSOC spine peak amplitude is shown for each group of cells shown on panel B. The mean AF/Fo signals for each group and presented as mean±SE (n≥45 spines). ***, p <0.001. (FIG. 4D) Confocal images of wild-type, PS1KI and APPKI hippocampal neurons transfected with TD-Tomato and fixed at DIV15-16. The images are shown for control neurons (CON) and for neurons treated with 30 nM NSN21778 (+NSN) or 30 nM Hyperforin (+Hyp) for 16 hours prior to fixation. Scale bar is 10 μm. (FIG. 4E) The average fraction of mushroom spines for each group of cells shown on FIG. 4D is presented as mean±SE (n≥18 neurons). ***, p <0.001.
# FIGS. 5A-E. TRPC6 is a molecular target for NSN21778 and Hyperforin. (FIGS. 5A-B) Time course of Fura-2 Ca^2+ signals is shown for HEK293 cells transfected with EGFP plasmid (GFP) or combination of EGFP and TRPC6 plasmids (TRPC6). Cells were incubated in ACSF media containing 2 mM Ca^2+. In experiments shown in FIG. 5B, cells were moved to modified ACSF media containing 0.1 mM Ca^2+ for 2 min and then returned to the media containing 2 mM Ca^2+ with addition of 100 μM OAG. The time of addition of 1 μM Hyperforin (Hyp) or NSN21778 (NSN) is indicated by red bars above the Fura-2 traces. For each experimental group individual spine (grey) and average (red) fluorescence traces are shown. (FIG. 5C) The average Ca^2+ influx peak is shown for experiments presented on FIGS. 5A-B as mean±SE (n≥81). (FIG. 5D) Confocal images of wild-type and PS1KI hippocampal neurons transfected with TD-Tomato and fixed at DIV15-16. The neurons were infected with lentiviruses encoding control RNAi (siCtrl), RNAi against TRPC6 (siT6) or RNAi against Orai2 (siO2). The images are shown for no drug treated neurons (CON) and for neurons treated with 30 nM NSN21778 (+NSN) or 30 nM Hyperforin (+Hyp) for 16 hours prior to fixation. Scale bar is 10 μm. No drug treated group of wild-type and PS1KI neurons is from the same experiment as shown on FIG. 2A-J. (FIG. 5E) The average fraction of mushroom spines for each group of cells shown on panel A is presented as mean±SE (n≥19 neurons). ***, p <0.001.
# Dendritic Spine Analysis in Primary Hippocampal Neural Cultures. The hippocampal cultures of PS1KI, APPKI and WT mice were established from postnatal day 0-1 pups and maintained in culture as the inventors described previously [Zhang, 2010 #5733]. For assessment of synapse morphology, hippocampal cultures were transfected with TD-Tomato plasmid at DIV7 using the calcium phosphate method and fixed (4% formaldehyde, 4% sucrose in PBS, pH 7.4) at DIV15-16. A Z-stack of optical section was captured using 100× objective with a confocal microscope (Carl Zeiss Axiovert 100M with LSM510). 18-20 cultured neurons from three batches of cultures were used for quantitative analysis per genotype. Quantitative analysis for dendritic spines was performed by using NeuronStudio software package [Rodriguez, 2008 #6276]. To classify the shape of neuronal spines in culture, the inventors adapted an algorithm from published method [Rodriguez, 2008 #6276]. In classification of spine shapes the inventors used the following cutoff values: aspect ratio for thin spines (AR_thin(crio))=2.5, head to neck ratio (HNR(crit))=1.4, and head diameter (HD(crit))=0.5 μm. […]
structure (smiles),measurement,setting,value
"CC(=O)Nc1ccc(CCNc2ncnc3ccc(N)cc23)cc1 [NSN21778, N-{4-[2-(6-Amino-quinazolin-4-ylamino)-ethyl]-phenyl}-acetamide]",mushroom spines,"PS1KI and APPKI neurons, 30 nM for 16 hr",complete rescue
same,mushroom spine loss,PS1KI cultures infected with control RNAi lentiviruses,rescued mushroom spine loss
same,mushroom spine loss,PS1KI hippocampal neurons following knockdown of TRPC6 or Orai2,failed to rescue mushroom spine loss
same,mushroom spine loss,wild-type neurons with knockdown of TRPC6 or Orai2,failed to rescue
same,fraction of mushroom spines,"wild-type neurons, 30 nM for 16 hr",no significant effect
